Test results: patent US12139475B2, “2-oxindole compounds” (CHEMOCENTRYX, INC., priority 2016, dated 2024)

Biological target: T1, CCR(9) (Homo sapiens, UniProt P51686)
T1 construct: MOLT-4 cells were collected by centrifugation at 400×g at room temperature, then suspended at 50 million/ml in human serum; host or cells: MOLT-4
T1 sequence (P51686 1-369): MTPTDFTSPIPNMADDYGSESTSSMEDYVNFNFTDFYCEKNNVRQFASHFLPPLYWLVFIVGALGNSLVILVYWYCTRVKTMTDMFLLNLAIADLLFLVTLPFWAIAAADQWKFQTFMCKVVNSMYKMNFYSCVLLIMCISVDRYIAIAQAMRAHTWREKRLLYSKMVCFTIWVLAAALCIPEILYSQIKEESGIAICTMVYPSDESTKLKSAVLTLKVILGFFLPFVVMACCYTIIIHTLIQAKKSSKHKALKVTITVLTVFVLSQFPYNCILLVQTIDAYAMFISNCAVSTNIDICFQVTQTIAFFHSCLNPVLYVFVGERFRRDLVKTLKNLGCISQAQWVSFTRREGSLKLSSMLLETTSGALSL
Assay: Serum chemotaxis assay (MOLT-4 cells, TECK-induced migration, ChemoTX)
Type: cell-based
Details: MOLT-4 cells in human serum, migration to recombinant human TECK, 90 minutes at 37° C.
Protocol: MOLT-4 cells were obtained from the American Type Culture Collection (Manassas, VA) and cultured in RPMI tissue culture medium supplemented with 10% fetal calf serum (FCS) in a humidified 5% CO2 incubator at 37° C. Recombinant human chemokine proteins TECK was obtained from R&D Systems (Minneapolis, MN). ChemoTX™ chemotaxis microchambers were purchased from Neuro Probe (Gaithersburg, MD). CyQUANT™ cell proliferation kits were purchased from Molecular Probes (Eugene, Oregon). Calcium indicator dye Fluo-4 AM was purchased from Molecular Devices (Mountain View, CA).
A serum chemotaxis assay was used to determine the efficacy of potential receptor antagonists at blocking the migration mediated through chemokine receptors, such as CCR(9). This assay was performed using the ChemoTX® microchamber system with a 5-μm pore-sized polycarbonate membrane. MOLT-4 cells were collected by centrifugation at 400×g at room temperature, then suspended at 50 million/ml in human serum, containing 50 mM HEPES (final pH of 7.2). The compound being tested or an equivalent volume of its solvent (DMSO) was then added to the cell/serum mixture at a final DMSO concentration of 0.125% (v/v), and this mixture was then incubated together at 37° C. for one hour. Separately, recombinant human TECK was diluted with chemotaxis buffer (HBSS+0.1% BSA), generally spanning a range from 0.1 nM to 500 nM, after which 29 μl of diluted chemokine was placed in the lower wells of the ChemoTX® plate. The 5-μm (pore size) polycarbonate membrane was placed onto the plate, and 20 μL of the cell/compound mixture was transferred onto each well of the membrane. The plates were incubated at 37° C. for 90 minutes, after which the polycarbonate membranes were removed and 5 μl of the DNA-intercalating agent CyQUANT (Invitrogen, Carlsbad, CA) was added to the lower wells. The amount of fluorescence, corresponding to the number of migrated cells, was measured using a Spectrafluor Plus plate reader (TECAN, San Jose, CA).
The A2 values were calculated from the following equation, comparing the efficacy of the test compound with that of the DMSO-only control at equi-active chemokine levels: Log(A2)=log[drug(M)]−log[(A′/A)−1] where A reflects the potency of the agonist in the absence of antagonist and A′ reflects the potency of the agonist in the presence of antagonist at a given concentration of drug ([drug(M)]). In Vivo Efficacy Models for Human IBD

| Compound | Chemotaxis A2 |
| --- | --- |
| Cc1ccc2c(c1)C(C)(c1ccc3c(c1)CCC(C)(C)O3)C(=O)N2c1ccc(C)c(C(=O)O)c1 (stereo in doubt) [5-[(3R)-3-(2,2-dimethylchroman-6-yl)-3,5-dimethyl-2-oxo-indolin-1-yl]-2-methyl-benzoic acid] | +++ (100 nM > A2) |
| Cc1c(CN2C(=O)[C@@](C)(c3ccc4c(c3)CCC(C)(C)O4)c3cc(Cl)ccc32)cccc1C(=O)O | +++ (100 nM > A2) |
| Cc1cc(N2C(=O)[C@@](C)(c3ccc4c(c3)CCC(C)(C)O4)c3cc(Cl)ccc32)ccc1C(=O)O | +++ (100 nM > A2) |
